Test results published in US11286248B2, “Pyrazine-2(1H)-ketone compound acting as FGFR inhibitor” (ZHANGZHOU PIEN TZE HUANG PHARMACEUTICAL CO., LTD., priority 2018, dated 2022).
Structures can show the parent of a compound that is named as a salt. Where two headings read alike, the source gives them in different places.

Legend:
human FGFR1 = target: T1, human FGFR1 (Homo sapiens, UniProt P11362); assay: 33P isotope-labeled kinase activity test (Reaction Biology Corp), wild-type FGFR1; type: biochemical; conditions: 33P-ATP 5 μM, substrate pEY + Mn, 120 minutes at room temperature
T1 construct: purchased Invitrogen PV3146
Method: (§1) The IC50 value is determined using ^33P isotope-labeled kinase activity test (Reaction Biology Corp) to evaluate the inhibitory ability of the compounds to be tested on human FGFR1 and FGFR4.
(§2) Buffer conditions: 20 mM 4-(2-hydroxyethyl)-1-piperazineethanesulfonic acid (Hepes) (pH 7.5), 10 mM MgCl2, 1 mM ethylene glycol-bis-(2-aminoethyl ether)tetraacetic acid (EGTA), 0.02% polyoxyethylene lauryl ether (Brij35), 0.02 mg/ml bovine serum albumin (BSA), 0.1 mM sodium vanadate (Na3VO4), 2 mM dithiothreitol (DTT), and 1% DMSO.
Test steps: At room temperature, the compounds to be tested are dissolved in DMSO to prepare a 10 mM solution for use. The substrate is dissolved in the newly prepared buffer, and the kinase to be tested is added and mixed well. The DMSO solution in which the compounds to be tested are dissolved is added to the above-mentioned homogeneous reaction solution using acoustic technology (Echo 550). […] After incubating for 15 minutes, ^33P-ATP (activity: 0.01 μCi/μl, with corresponding concentration being listed in table 1) is added to start the reaction. The supplier article number, batch number, and the concentration information in the reaction solution of FGFR1, FGFR4 and substrates thereof are listed in table 1. […] The kinase activity data is expressed by comparing the kinase activity of the groups containing the compounds to be tested with that of the blank group (containing only DMSO). The IC50 value is obtained by curve fitting using Prism4 software (GraphPad), and the experimental results are shown in table 2.

FGFR2 = target: T2, FGFR2 (Homo sapiens, UniProt P21802); assay: 33P isotope-labeled kinase activity test (Reaction Biology Corp), wild-type FGFR2; type: biochemical
T2 construct: purchased Invitrogen PV3368

FGFR3 = target: T3, FGFR3 (Homo sapiens, UniProt P22607); assay: 33P isotope-labeled kinase activity test (Reaction Biology Corp), wild-type FGFR3; type: biochemical
T3 construct: purchased Invitrogen PV3145

human FGFR4 = target: T4, human FGFR4 (Homo sapiens, UniProt P22455); assay: 33P isotope-labeled kinase activity test (Reaction Biology Corp), wild-type FGFR4; type: biochemical; conditions: 33P-ATP 2.5 μM, substrate pEY + Mn, 120 minutes at room temperature
T4 construct: purchased Invitrogen P3054
Method: as §1, §2
Test steps: At room temperature, the compounds to be tested are dissolved in DMSO to prepare a 10 mM solution for use. The substrate is dissolved in the newly prepared buffer, and the kinase to be tested is added and mixed well. The DMSO solution in which the compounds to be tested are dissolved is added to the above-mentioned homogeneous reaction solution using acoustic technology (Echo 550). […] After incubating for 15 minutes, ^33P-ATP (activity: 0.01 μCi/μl, with corresponding concentration being listed in table 1) is added to start the reaction. The supplier article number, batch number, and the concentration information in the reaction solution of FGFR1, FGFR4 and substrates thereof are listed in table 1. After the reaction is carried out at room temperature for 120 minutes, the reaction solution is spotted on P81 ion exchange filter paper (Whatman #3698-915). After the filter paper is repeatedly washed with 0.75% phosphoric acid solution, the radioactivity of the phosphorylated substrate remaining on the filter paper is measured. The kinase activity data is expressed by comparing the kinase activity of the groups containing the compounds to be tested with that of the blank group (containing only DMSO). The IC50 value is obtained by curve fitting using Prism4 software (GraphPad), and the experimental results are shown in table 2.

[1] = Pharmacokinetic evaluation of compounds in mice; type: in vivo; conditions: CD-1 mouse (male), single gavage, plasma; for MRT last: read-out: MRT0-last
Method: Experimental purpose: testing pharmacokinetics of the compounds in mice
CD-1 mouse (male), vehicle (an aqueous solution of 0.5% (w/v) methylcellulose and 0.5% (v/v) Tween 80), and trfluoroacetate salt of compound 0027.
The animals in groups 1 and 2 are administrated […] of the compounds by single gavage, respectively, and the administration volume is 10 mL/kg.
Whole blood samples (30 μl) are collected at the prescribed time points (0.25, 0.5, 1, 2, 4, 6, 8, 24 h) by saphenous vein blood collection, and the actual blood collection time is recorded in the test record. The acceptable error of the collection time point is a time point within 1 hour of administration time ±1 minute, and the acceptable error of other time points is a theoretical time ±5%.
All blood samples are immediately transferred to labeled commercial centrifuge tubes containing K2-EDTA. After being collected, the blood samples are centrifuged at 3200 rpm/min for 10 minutes at 4° C. to aspirate the supernatant plasma, which is quickly placed in dry ice, and kept at −20° C. or a lower temperature for LC-MS/MS analysis.

T3 sequence (P22607 23-806): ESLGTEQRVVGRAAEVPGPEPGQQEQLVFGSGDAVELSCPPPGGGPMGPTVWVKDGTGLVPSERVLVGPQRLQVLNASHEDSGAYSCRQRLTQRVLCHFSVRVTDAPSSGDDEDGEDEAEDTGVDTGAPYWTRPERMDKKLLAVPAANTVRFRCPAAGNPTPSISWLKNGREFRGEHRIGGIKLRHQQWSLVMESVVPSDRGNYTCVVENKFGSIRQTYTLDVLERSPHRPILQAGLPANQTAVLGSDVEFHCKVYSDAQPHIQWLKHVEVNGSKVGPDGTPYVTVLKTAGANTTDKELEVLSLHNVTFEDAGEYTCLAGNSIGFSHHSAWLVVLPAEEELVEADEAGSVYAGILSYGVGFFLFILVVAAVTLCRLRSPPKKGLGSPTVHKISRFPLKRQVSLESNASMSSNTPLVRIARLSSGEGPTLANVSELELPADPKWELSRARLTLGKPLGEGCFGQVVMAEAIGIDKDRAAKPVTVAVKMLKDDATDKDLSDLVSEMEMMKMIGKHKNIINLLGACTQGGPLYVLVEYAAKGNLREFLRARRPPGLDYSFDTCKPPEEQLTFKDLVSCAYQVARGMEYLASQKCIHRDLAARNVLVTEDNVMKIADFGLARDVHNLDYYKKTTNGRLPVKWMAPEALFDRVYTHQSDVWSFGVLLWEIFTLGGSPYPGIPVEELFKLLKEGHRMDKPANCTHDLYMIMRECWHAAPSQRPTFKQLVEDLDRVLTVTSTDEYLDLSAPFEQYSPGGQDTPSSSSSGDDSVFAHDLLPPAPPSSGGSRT
T2 sequence (P21802 22-821): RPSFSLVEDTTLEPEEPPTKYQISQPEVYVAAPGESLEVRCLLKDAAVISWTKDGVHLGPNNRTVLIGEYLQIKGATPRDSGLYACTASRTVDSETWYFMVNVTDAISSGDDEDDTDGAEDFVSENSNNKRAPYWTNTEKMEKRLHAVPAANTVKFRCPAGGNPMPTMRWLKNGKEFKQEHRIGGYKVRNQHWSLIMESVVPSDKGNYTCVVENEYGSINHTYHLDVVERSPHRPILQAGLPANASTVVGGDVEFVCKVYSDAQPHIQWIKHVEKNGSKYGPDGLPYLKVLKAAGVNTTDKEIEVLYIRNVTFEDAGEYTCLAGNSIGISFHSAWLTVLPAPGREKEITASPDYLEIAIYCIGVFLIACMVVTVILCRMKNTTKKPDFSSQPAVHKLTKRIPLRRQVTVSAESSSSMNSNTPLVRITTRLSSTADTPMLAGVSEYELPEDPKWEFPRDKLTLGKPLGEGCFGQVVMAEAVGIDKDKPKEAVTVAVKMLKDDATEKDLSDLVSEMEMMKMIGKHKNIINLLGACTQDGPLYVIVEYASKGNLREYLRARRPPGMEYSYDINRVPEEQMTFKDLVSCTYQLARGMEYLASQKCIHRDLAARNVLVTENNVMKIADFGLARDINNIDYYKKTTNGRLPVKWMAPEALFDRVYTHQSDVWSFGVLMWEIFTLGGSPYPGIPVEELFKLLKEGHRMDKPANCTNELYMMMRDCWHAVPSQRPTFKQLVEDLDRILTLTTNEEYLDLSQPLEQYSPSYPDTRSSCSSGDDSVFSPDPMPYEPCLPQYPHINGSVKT
T1 sequence (P11362 22-822): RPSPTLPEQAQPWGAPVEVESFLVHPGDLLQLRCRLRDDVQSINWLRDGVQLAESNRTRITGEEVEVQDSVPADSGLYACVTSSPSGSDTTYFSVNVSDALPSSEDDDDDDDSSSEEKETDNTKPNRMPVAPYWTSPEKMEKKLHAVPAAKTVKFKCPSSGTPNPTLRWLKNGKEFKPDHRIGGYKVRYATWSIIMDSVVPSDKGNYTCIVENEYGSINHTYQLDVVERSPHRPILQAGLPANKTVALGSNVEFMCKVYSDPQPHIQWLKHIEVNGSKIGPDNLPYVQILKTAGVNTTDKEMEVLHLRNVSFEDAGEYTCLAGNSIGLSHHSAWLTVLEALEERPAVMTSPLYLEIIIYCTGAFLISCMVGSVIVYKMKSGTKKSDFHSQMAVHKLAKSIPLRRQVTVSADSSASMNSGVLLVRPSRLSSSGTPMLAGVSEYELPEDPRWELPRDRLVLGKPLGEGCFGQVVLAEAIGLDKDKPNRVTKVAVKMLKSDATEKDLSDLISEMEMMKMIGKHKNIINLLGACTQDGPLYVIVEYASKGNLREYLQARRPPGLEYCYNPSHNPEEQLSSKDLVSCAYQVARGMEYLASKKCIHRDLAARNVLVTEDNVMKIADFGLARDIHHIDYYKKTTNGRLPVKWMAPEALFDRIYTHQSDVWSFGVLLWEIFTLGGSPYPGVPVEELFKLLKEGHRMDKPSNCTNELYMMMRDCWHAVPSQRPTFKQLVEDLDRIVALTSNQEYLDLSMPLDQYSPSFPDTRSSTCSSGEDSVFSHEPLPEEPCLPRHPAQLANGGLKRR
T4 sequence (P22455 22-802): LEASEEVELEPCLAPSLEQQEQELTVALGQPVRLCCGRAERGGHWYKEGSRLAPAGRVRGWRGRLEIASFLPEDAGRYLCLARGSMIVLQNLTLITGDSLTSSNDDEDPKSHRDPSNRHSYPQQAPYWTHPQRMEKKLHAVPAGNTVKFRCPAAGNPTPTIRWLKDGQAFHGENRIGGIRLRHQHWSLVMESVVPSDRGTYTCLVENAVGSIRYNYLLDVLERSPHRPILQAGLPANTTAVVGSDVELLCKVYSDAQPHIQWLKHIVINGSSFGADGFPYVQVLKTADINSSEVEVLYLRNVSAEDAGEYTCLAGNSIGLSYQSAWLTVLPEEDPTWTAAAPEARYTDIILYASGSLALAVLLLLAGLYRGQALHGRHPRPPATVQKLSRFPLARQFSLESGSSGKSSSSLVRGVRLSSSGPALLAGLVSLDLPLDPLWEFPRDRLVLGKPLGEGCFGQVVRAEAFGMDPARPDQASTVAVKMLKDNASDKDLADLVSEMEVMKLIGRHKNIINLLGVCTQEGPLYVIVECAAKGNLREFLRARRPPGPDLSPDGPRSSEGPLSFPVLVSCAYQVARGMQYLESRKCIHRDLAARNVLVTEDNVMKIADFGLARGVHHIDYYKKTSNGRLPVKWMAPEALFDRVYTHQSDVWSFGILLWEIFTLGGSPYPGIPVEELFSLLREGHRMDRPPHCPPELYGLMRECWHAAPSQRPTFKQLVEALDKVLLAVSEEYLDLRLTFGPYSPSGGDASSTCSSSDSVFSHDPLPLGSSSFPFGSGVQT

Question: For `COc1cc(OC)c(Cl)c(-c2nc(-c3nc(-c4cn(C)nc4C)cnc3N)cn(C)c2=O)c1` [Trifluoroacetate salt of 0027], which IC50 (human FGFR1) is on record?
Answer: The IC50 was 2.12 nM.

Question: What about the “Selectivity FGFR1/2” value (FGFR2; ratio of IC50 FGFR1 to IC50 FGFR2) of the same molecule?
Answer: The value was 4.02.

Question: And the IC50 (FGFR2; wild-type kinase, 33P-ATP 5 μM, substrate pEY + Mn, 120 minutes at room temperature)?
Answer: Its IC50 is 0.53 nM.

Question: What about the “Selectivity FGFR1/3” value (FGFR3; ratio of IC50 FGFR1 to IC50 FGFR3) of the same molecule?
Answer: Its value is 3.06.

Question: What about the IC50 (FGFR3; wild-type kinase, 33P-ATP 30 μM, substrate pEY + Mn, 120 minutes at room temperature) of the same molecule?
Answer: Its IC50 is 0.69 nM.

Question: And the IC50 (human FGFR4)?
Answer: The IC50 was 106 nM.

Question: And the Tlast ([1]; 300 mpk)?
Answer: Its Tlast is 24.0 h.

Question: And the AUC(0-inf) ([1]; po, 50 mg/kg, 50 mpk)?
Answer: The AUC(0-inf) was 95.8 µM·h.

Question: What about the AUC(0-t) ([1]; po, 50 mg/kg, 50 mpk) of the same molecule?
Answer: Its AUC(0-t) is 85.8 µM·h.

Question: What about the Cmax ([1]; po, 50 mg/kg, 50 mpk) of the same molecule?
Answer: The Cmax was 14.8 µM.

Question: What about the Tmax ([1]; po, 50 mg/kg, 50 mpk) of the same molecule?
Answer: The Tmax was 1 h.

Question: And the half-life ([1]; po, 50 mg/kg, 50 mpk)?
Answer: Its half-life is 2.46 h.

Question: And the MRT inf ([1]; po, 50 mg/kg, 50 mpk, read-out: MRT0-inf)?
Answer: The MRT inf was 5.39 h.

Question: What about the MRT last ([1]; po, 50 mg/kg, 50 mpk) of the same molecule?
Answer: The MRT last was 4.33 h.

Question: And the AUC(0-t) ([1]; po, 300 mg/kg, 300 mpk)?
Answer: Its AUC(0-t) is 699 µM·h.

Question: What about the Cmax ([1]; po, 300 mg/kg, 300 mpk) of the same molecule?
Answer: Its Cmax is 42.1 µM.

Question: What about the Tmax ([1]; po, 300 mg/kg, 300 mpk) of the same molecule?
Answer: Its Tmax is 7 h.

Question: What about the MRT last ([1]; po, 300 mg/kg, 300 mpk) of the same molecule?
Answer: The MRT last was 11.1 h.
